Data as given in patent publication US9603364B2 (Dow AgroSciences LLC, priority 2013, dated 2017).

What was measured:
Assay in all cases: General post-emergent herbicidal activity, foliar application
Type in all cases: in vivo
[1] = test system: Zea mays L. (corn); conditions: 336 h, scored after 14 days, read-out: % Visual Growth Reduction ZEAMX; for plant injury at 70 g/ha: 70 g ai/ha; for plant injury at 140 g/ha: 140 g ai/ha; for plant injury at 280 g/ha: 280 g ai/ha
Outline: (§1)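 Compounds in acetone/DMSO (97:3) diluted into aqueous spray with isopropanol, Atplus 411F crop oil and Triton X-155; top rate plus 1/2×–1/16× serial rates applied to foliage, solvent blank as control. Greenhouse, sub-irrigated; visual injury versus untreated plants scored 0–100% (100 = complete kill) after 14 days.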

[2] = test system: Oryza sativa L. (rice); conditions: Oryza sativa, 336 h, scored after 14 days, read-out: % Visual Growth Reduction ORYSA; for plant injury at 70 g/ha: 70 g ai/ha; for plant injury at 140 g/ha: 140 g ai/ha; for plant injury at 280 g/ha: 280 g ai/ha
Outline: as §1

[3] = test system: Echinochloa crus-galli (L.) Beauv. (barnyardgrass); conditions: for pest or weed control at 70 g/ha: 70 g ai/ha; for pest or weed control at 140 g/ha: 140 g ai/ha; for pest or weed control at 280 g/ha: 280 g ai/ha; for GR80 Value ECHCG: calculated by probit analysis, dose for 80% visual injury, may be extrapolated
Outline: (§2)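 Compounds in acetone/DMSO 97:3 were diluted into aqueous spray mix with isopropanol, crop oil concentrate and Triton X-155, then serially diluted to 1/2×–1/16× of the top rate and sprayed on foliage. Plants were kept in greenhouse with sub-irrigation. Injury was scored visually (0–100%) at 14 days; GR20/GR50/GR80 came from probit analysis.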

[4] = test system: Helianthus annuus L. (sunflower, common); conditions: for pest or weed control at 70 g/ha: 70 g ai/ha; for pest or weed control at 140 g/ha: 140 g ai/ha; for pest or weed control at 280 g/ha: 280 g ai/ha; for GR80 Value HELAN: calculated by probit analysis, dose for 80% visual injury, may be extrapolated
Outline: as §2

[5] = test system: Euphorbia heterophylla L. (poinsettia, wild); conditions: for pest or weed control at 70 g/ha: 70 g ai/ha; for pest or weed control at 140 g/ha: 140 g ai/ha; for pest or weed control at 280 g/ha: 280 g ai/ha; for GR80 Value EPHHL: calculated by probit analysis, dose for 80% visual injury, may be extrapolated
Outline: as §2

[6] = test system: Amaranthus retroflexus L. (pigweed, redroot); conditions: for pest or weed control at 70 g/ha: 70 g ai/ha; for pest or weed control at 140 g/ha: 140 g ai/ha; for pest or weed control at 280 g/ha: 280 g ai/ha; for GR80 Value AMARE: calculated by probit analysis, dose for 80% visual injury, may be extrapolated
Outline: as §2

[7] = test system: Chenopodium album L. (lambsquarters, common); conditions: for pest or weed control at 70 g/ha: 70 g ai/ha; for pest or weed control at 140 g/ha: 140 g ai/ha; for pest or weed control at 280 g/ha: 280 g ai/ha; for GR80 Value CHEAL: calculated by probit analysis, dose for 80% visual injury, may be extrapolated
Outline: as §2

[8] = test system: Viola tricolor L. (pansy); conditions: for pest or weed control at 70 g/ha: 70 g ai/ha; for pest or weed control at 140 g/ha: 140 g ai/ha; for pest or weed control at 280 g/ha: 280 g ai/ha; for GR80 Value VIOTR: calculated by probit analysis, dose for 80% visual injury, may be extrapolated
Outline: as §2

[9] = Echinochloa crus-galli, 336 h, foliar post-emergent, scored after 14 days, read-out: % Visual Growth Reduction ECHCG
[10] = Helianthus annuus, 336 h, foliar post-emergent, scored after 14 days, read-out: % Visual Growth Reduction HELAN
[11] = Euphorbia heterophylla, 336 h, foliar post-emergent, scored after 14 days, read-out: % Visual Growth Reduction EPHHL
[12] = Amaranthus retroflexus, 336 h, foliar post-emergent, scored after 14 days, read-out: % Visual Growth Reduction AMARE
[13] = Chenopodium album, 336 h, foliar post-emergent, scored after 14 days, read-out: % Visual Growth Reduction CHEAL
[14] = Viola tricolor, 336 h, foliar post-emergent, scored after 14 days, read-out: % Visual Growth Reduction VIOTR

| Structure (SMILES) | plant injury at 70 g/ha [1] [%] | plant injury at 140 g/ha [1] [%] | plant injury at 70 g/ha [2] [%] | plant injury at 140 g/ha [2] [%] | pest or weed control at 70 g/ha [3, 9] [%] | pest or weed control at 140 g/ha [3, 9] [%] | GR80 Value ECHCG [3] [g ai/ha] | pest or weed control at 70 g/ha [4, 10] [%] | pest or weed control at 140 g/ha [4, 10] [%] | GR80 Value HELAN [4] [g ai/ha] | pest or weed control at 70 g/ha [5, 11] [%] | pest or weed control at 140 g/ha [5, 11] [%] | GR80 Value EPHHL [5] [g ai/ha] | pest or weed control at 70 g/ha [6, 12] [%] | pest or weed control at 140 g/ha [6, 12] [%] | GR80 Value AMARE [6] [g ai/ha] | pest or weed control at 70 g/ha [7, 13] [%] | pest or weed control at 140 g/ha [7, 13] [%] | GR80 Value CHEAL [7] [g ai/ha] | pest or weed control at 70 g/ha [8, 14] [%] | other results |
| --- | --- | --- | --- | --- | --- | --- | --- | --- | --- | --- | --- | --- | --- | --- | --- | --- | --- | --- | --- | --- | --- |
| CC(F)c1nc(C(=O)O)c(Cl)c(N)c1F (centres unmarked) [Compound F30, 4-amino-3-chloro-5-fluoro-6-(1-fluoroethyl)picolinic acid] | 100 | 100 | 0 | 0 | 0 | 65 | 239 | 80 | 90 | 59.3 | 70 | 100 | 84.9 | 100 | 100 | 40.6 | 95 | 95 | <17.5 | 10 | plant injury at 280 g/ha [1]: 100%; plant injury at 280 g/ha [2]: 0%; pest or weed control at 280 g/ha [3, 9]: 80%; pest or weed control at 280 g/ha [4, 10]: 90%; pest or weed control at 280 g/ha [5, 11]: 100%; pest or weed control at 280 g/ha [6, 12]: 100%; pest or weed control at 280 g/ha [7, 13]: 100%; pest or weed control at 140 g/ha [8, 14]: 25%; pest or weed control at 280 g/ha [8, 14]: 50%; GR80 Value VIOTR [8]: >280 g ai/ha |
| CC(F)c1nc(C(=O)O)c(Cl)c(N)c1Cl (centres unmarked) [Compound F16, 4-Amino-3,5-dichloro-6-(1-fluoroethyl)picolinic acid] | 0 | 0 | 0 | 0 | 0 | 0 | >280 | 80 | 90 | 31.4 | 0 | 0 | 373 | 90 | 90 | 51.4 | 100 | 100 | <17.5 | 0 | plant injury at 280 g/ha [1]: 0%; plant injury at 280 g/ha [2]: 0%; pest or weed control at 280 g/ha [3, 9]: 0%; pest or weed control at 280 g/ha [4, 10]: 100%; pest or weed control at 280 g/ha [5, 11]: 50%; pest or weed control at 280 g/ha [6, 12]: 100%; pest or weed control at 280 g/ha [7, 13]: 100%; pest or weed control at 140 g/ha [8, 14]: 0%; pest or weed control at 280 g/ha [8, 14]: 0%; GR80 Value VIOTR [8]: >280 g ai/ha |
| COC(=O)c1nc(C(Br)CBr)cc(N)c1Cl (centres unmarked) [Compound F34, methyl 4-amino-3-chloro-6-(1,2-dibromoethyl)picolinate] |  |  |  |  |  |  |  |  |  |  |  |  |  |  |  |  |  |  |  |  | plant injury at 264 g/ha ([1]; 264 g ai/ha): 0%; plant injury at 264 g/ha ([2]; 264 g ai/ha): 0%; pest or weed control at 264 g/ha ([3]; Echinochloa crus-galli, 336 h, 264 g ai/ha, foliar post-emergent, scored after 14 days, read-out: % Visual Growth Reduction ECHCG): 0%; pest or weed control at 264 g/ha ([4]; Helianthus annuus, 336 h, 264 g ai/ha, foliar post-emergent, scored after 14 days, read-out: % Visual Growth Reduction HELAN): 80%; pest or weed control at 264 g/ha ([5]; Euphorbia heterophylla, 336 h, 264 g ai/ha, foliar post-emergent, scored after 14 days, read-out: % Visual Growth Reduction EPHHL): 10%; pest or weed control at 264 g/ha ([6]; Amaranthus retroflexus, 336 h, 264 g ai/ha, foliar post-emergent, scored after 14 days, read-out: % Visual Growth Reduction AMARE): 0%; pest or weed control at 264 g/ha ([7]; Chenopodium album, 336 h, 264 g ai/ha, foliar post-emergent, scored after 14 days, read-out: % Visual Growth Reduction CHEAL): 60%; pest or weed control at 264 g/ha ([8]; Viola tricolor, 336 h, 264 g ai/ha, foliar post-emergent, scored after 14 days, read-out: % Visual Growth Reduction VIOTR): 0% |
| COC(=O)c1nc(C(C)F)c(Cl)c(N)c1Cl (centres unmarked) [Compound F10, Methyl 4-amino-3,5-dichloro-6-(1-fluoroethyl)picolinate] | 0 | 0 | 0 | 0 | 0 | 0 | >140 | 85 | 100 | 124 | 20 | 30 | >140 | 98 | 100 | 18.1 | 85 | 85 | 23.7 | 0 | plant injury at 35 g/ha ([1]; 35 g ai/ha): 0%; plant injury at 35 g/ha ([2]; 35 g ai/ha): 0%; pest or weed control at 35 g/ha ([3]; Echinochloa crus-galli, 336 h, 35 g ai/ha, foliar post-emergent, scored after 14 days, read-out: % Visual Growth Reduction ECHCG): 0%; pest or weed control at 35 g/ha ([4]; Helianthus annuus, 336 h, 35 g ai/ha, foliar post-emergent, scored after 14 days, read-out: % Visual Growth Reduction HELAN): 80%; pest or weed control at 35 g/ha ([5]; Euphorbia heterophylla, 336 h, 35 g ai/ha, foliar post-emergent, scored after 14 days, read-out: % Visual Growth Reduction EPHHL): 0%; pest or weed control at 35 g/ha ([6]; Amaranthus retroflexus, 336 h, 35 g ai/ha, foliar post-emergent, scored after 14 days, read-out: % Visual Growth Reduction AMARE): 85%; pest or weed control at 35 g/ha ([7]; Chenopodium album, 336 h, 35 g ai/ha, foliar post-emergent, scored after 14 days, read-out: % Visual Growth Reduction CHEAL): 80%; pest or weed control at 35 g/ha ([8]; Viola tricolor, 336 h, 35 g ai/ha, foliar post-emergent, scored after 14 days, read-out: % Visual Growth Reduction VIOTR): 0%; pest or weed control at 140 g/ha [8, 14]: 0%; GR80 Value VIOTR [8]: >140 g ai/ha |
